Data taken from PubChem BioAssay AID2060606 (Molecular Pharmacology Branch, DTP, NCI, 2025).

Tested on: 922993-354-T-J3-PDC complex spheroids, viability, % test/control
Test: Anticancer human tumor 922993-354-T-J3-PDC patient-derived endometrial carcinoma cell line growth inhibition [CLK]
Conditions: for IC50: curve of first compound; for viability, T/C: stronger effect = lower value
Summary of the method: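 Multi-cell-type spheroids combined patient-derived tumor cells with HUVEC endothelial cells and human mesenchymal stem cells. Paired agents were dosed in half-log steps down from about clinical Cmax, or from 10 microM where Cmax was unknown.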

[1] = second compound 0.0316 µM, first compound 0.0316 µM
[2] = second compound 0.0316 µM, first compound 0.1 µM
[3] = second compound 0.0316 µM, first compound 0.316 µM
[4] = second compound 0.0316 µM, first compound 1 µM
[5] = second compound 0.0316 µM, first compound 3.16 µM
[6] = second compound 0.0316 µM, first compound 10 µM
[7] = second compound 0.1 µM, first compound 0.0316 µM
[8] = second compound 0.1 µM, first compound 0.1 µM
[9] = second compound 0.1 µM, first compound 0.316 µM
[10] = second compound 0.1 µM, first compound 1 µM
[11] = second compound 0.1 µM, first compound 3.16 µM
[12] = second compound 0.1 µM, first compound 10 µM
[13] = second compound 0.316 µM, first compound 0.0316 µM
[14] = second compound 0.316 µM, first compound 0.1 µM
[15] = second compound 0.316 µM, first compound 0.316 µM
[16] = second compound 0.316 µM, first compound 1 µM
[17] = second compound 0.316 µM, first compound 3.16 µM
[18] = second compound 0.316 µM, first compound 10 µM
[19] = second compound 1 µM, first compound 0.0316 µM
[20] = second compound 1 µM, first compound 0.1 µM
[21] = second compound 1 µM, first compound 0.316 µM
[22] = second compound 1 µM, first compound 1 µM
[23] = second compound 1 µM, first compound 3.16 µM
[24] = second compound 1 µM, first compound 10 µM
[25] = second compound 3.16 µM, first compound 0.0316 µM
[26] = second compound 3.16 µM, first compound 0.1 µM
[27] = second compound 3.16 µM, first compound 0.316 µM
[28] = second compound 3.16 µM, first compound 1 µM
[29] = second compound 3.16 µM, first compound 3.16 µM
[30] = second compound 3.16 µM, first compound 10 µM
[31] = second compound 10 µM, first compound 0.0316 µM
[32] = second compound 10 µM, first compound 0.1 µM
[33] = second compound 10 µM, first compound 0.316 µM
[34] = second compound 10 µM, first compound 1 µM
[35] = second compound 10 µM, first compound 3.16 µM
[36] = second compound 10 µM, first compound 10 µM
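Further: spheroids exposed to the agents for 7 days before readout.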

Structure (SMILES): CC1(C)CCC(CN2CCN(c3ccc(C(=O)NS(=O)(=O)c4ccc(NCC5CCOCC5)c([N+](=O)[O-])c4)c(Oc4cnc5[nH]ccc5c4)c3)CC2)=C(c2ccc(Cl)cc2)C1 + CN1CCN(c2cc(C(=O)Nc3cc4cc(-c5cnn(C)c5)ccc4cn3)ccn2)CC1
- IC50 (second compound 0.0316 µM): 6610 nM
- IC50 (second compound 0.1 µM): 5420 nM
- IC50 (second compound 0.316 µM): < 31.6 nM
- IC50 (second compound 1 µM): < 31.6 nM
- IC50 (second compound 3.16 µM): < 31.6 nM
- IC50 (second compound 10 µM): < 31.6 nM
- viability, T/C [1]: 109%
- viability, T/C [2]: 109%
- viability, T/C [3]: 97%
- viability, T/C [4]: 105%
- viability, T/C [5]: 112%
- viability, T/C [6]: 18.2%
- viability, T/C [7]: 97.1%
- viability, T/C [8]: 90.4%
- viability, T/C [9]: 79.8%
- viability, T/C [10]: 97.7%
- viability, T/C [11]: 87.1%
- viability, T/C [12]: 7.76%
- viability, T/C [13]: 40%
- viability, T/C [14]: 38%
- viability, T/C [15]: 39.8%
- viability, T/C [16]: 32.5%
- viability, T/C [17]: 29.9%
- viability, T/C [18]: 1.44%
- viability, T/C [19]: 0.16%
- viability, T/C [20]: 0.69%
- viability, T/C [21]: 0.19%
- viability, T/C [22]: 0.86%
- viability, T/C [23]: 1.06%
- viability, T/C [24]: 0.1%
- viability, T/C [25]: 0.36%
- viability, T/C [26]: 0.14%
- viability, T/C [27]: 0.14%
- viability, T/C [28]: 0.11%
- viability, T/C [29]: 2.58%
- viability, T/C [30]: 1.27%
- viability, T/C [31]: 0.15%
- viability, T/C [32]: 0.14%
- viability, T/C [33]: 1.91%
- viability, T/C [34]: 0.13%
- viability, T/C [35]: 0.16%
- viability, T/C [36]: 2.48%

Structure (SMILES): CC1COCCN1c1cc(C2(S(C)(=N)=O)CC2)nc(-c2ccnc3[nH]ccc23)n1 (centres undefined) + CN1CCN(c2cc(C(=O)Nc3cc4cc(-c5cnn(C)c5)ccc4cn3)ccn2)CC1
- IC50 (second compound 0.0316 µM): > 10000 nM
- IC50 (second compound 0.1 µM): > 10000 nM
- IC50 (second compound 0.316 µM): < 31.6 nM
- IC50 (second compound 1 µM): < 31.6 nM
- IC50 (second compound 3.16 µM): < 31.6 nM
- IC50 (second compound 10 µM): < 31.6 nM
- viability, T/C [1]: 122%
- viability, T/C [2]: 119%
- viability, T/C [3]: 119%
- viability, T/C [4]: 120%
- viability, T/C [5]: 117%
- viability, T/C [6]: 76.3%
- viability, T/C [7]: 90.6%
- viability, T/C [8]: 111%
- viability, T/C [9]: 111%
- viability, T/C [10]: 94.6%
- viability, T/C [11]: 104%
- viability, T/C [12]: 60.7%
- viability, T/C [13]: 38.1%
- viability, T/C [14]: 45.2%
- viability, T/C [15]: 35.9%
- viability, T/C [16]: 36.2%
- viability, T/C [17]: 27.9%
- viability, T/C [18]: 13.3%
- viability, T/C [19]: 0.12%
- viability, T/C [20]: 0.14%
- viability, T/C [21]: 1.67%
- viability, T/C [22]: 0.14%
- viability, T/C [23]: 0.12%
- viability, T/C [24]: 0.08%
- viability, T/C [25]: 0.13%
- viability, T/C [26]: 0.13%
- viability, T/C [27]: 0.16%
- viability, T/C [28]: 0.94%
- viability, T/C [29]: 1.11%
- viability, T/C [30]: 0.87%
- viability, T/C [31]: 0.78%
- viability, T/C [32]: 0.17%
- viability, T/C [33]: 1.4%
- viability, T/C [34]: 0.2%
- viability, T/C [35]: 0.94%
- viability, T/C [36]: 1.78%
